The text below walks through data of US7468376B2, “Pyrazolopyridine derivates” (Palau Pharma, S.A., priority 2003, dated 2008).

One test has as its system TNF-α release induced by LPS in human peripheral blood mononuclear cells. The test can be described thus: Test 2: Inhibition of TNF-α release induced by LPS in human peripheral blood mononuclear cells. It counts as cell-based. The settings on record: Homo sapiens, PBMC, test product at 0.1 μM, LPS 400 ng/mL, 19 h, TNF-α in supernatant by ELISA. The method, then:
Test 2: Inhibition of TNF-α Release Induced by LPS in Human Peripheral Blood Mononuclear Cells
To obtain the mononuclear cells: heparinized venous blood, obtained from healthy volunteers, is diluted with an equal volume of saline phosphate buffer without calcium or magnesium. Aliquots of 30 mL of the mixture are transferred to 50 mL centrifuge tubes containing 15 mL of Ficoll-Hypaque (1.077 g/mL). The tubes are centrifuged at 1200×g for 20 min at room temperature without braking. Approximately two-thirds of the band of platelets lying above the mononuclear cells is removed with a pipette. The mononuclear cells are carefully transferred to a 50 mL tube, washed twice with saline phosphate buffer, centrifuged at 300×g for 10 min at room temperature and resuspended in RPMI supplemented with 1% inactivated fetal bovine serum at a cell density of 2×10^6 cells/mL.
Inhibition of TNF-α release: 100 μL of mononuclear cells (2×10^6 cells/mL) are incubated on 96-well plates with 50 μL of the test product (final concentration, 0.001-10 μM) and 50 μL LPS (E. coli 055B5, Sigma) at a final concentration of 400 ng/mL for 19 h at 37° C. in an atmosphere with CO2 at 5%. The amount of TNF-α released in the supernatant is quantified using a commercial ELISA kit (Biosource International).
`CC(=O)N1CCN(CCn2cc3c(-c4ccc(F)cc4)c(-c4ccncc4)c(-c4ccc(F)cc4)nc3n2)CC1` [Example 136, 1-[4-[2-[4,6-Bis(4-fluorophenyl)-5-(4-pyridyl)pyrazolo[3,4-b]pyridin-2-yl]ethyl]piperazin-1-yl]ethanone] yielded an inhibition at 0.1 µM of 67%.
Still for that read-out and setting: as for `OCCCn1cc2c(-c3ccc(F)cc3)c(-c3ccnc(NCC4CC4)n3)c(-c3ccc(F)cc3)nc2n1` [Example 213, 3-[5-[2-[(Cyclopropylmethyl)amino]-pyrimidin-4-yl]-4,6-bis(4-fluorophenyl)pyrazolo[3,4-b]pyridin-2-yl]propan-1-ol], the figure is 68.1%; as for `CN(C)C(=O)Cn1cc2c(-c3ccc(F)cc3)c(-c3ccncc3)c(-c3ccc(F)cc3)nc2n1` [Example 80, 2-[4,6-Bis(4-fluorophenyl)-5-(4-pyridyl)pyrazolo[3,4-b]pyridin-2-yl]-N,N-dimethylacetamide], 69.3%.
The same measure, in the same setting: as for `Fc1ccc(-c2nc3nn(CCN4CCOCC4)cc3c(-c3ccc(F)cc3)c2-c2ccncc2)cc1` [Example 30, 4,6-Bis(4-fluorophenyl)-2-[2-(morpholin-4-yl)ethyl]-5-(4-pyridyl)pyrazolo[3,4-b]pyridine], the figure is 83.6%.
With `OCCCn1cc2cc(-c3ccnc(NCC4CC4)n3)c(-c3ccc(F)cc3)nc2n1` [Example 212, 3-[5-[2-[(Cyclopropylmethyl)-amino]pyrimidin-4-yl]-6-(4-fluorophenyl)pyrazolo[3,4-b]pyridin-2-yl]propan-1-ol], the inhibition at 0.1 µM was 67.5%.
Still for that read-out and setting: as for `CCn1cc2c(-c3ccc(F)cc3)c(-c3ccncc3)c(-c3ccc(F)cc3)nc2n1` [Example 6, 2-Ethyl-4,6-bis(4-fluorophenyl)-5-(4-pyridyl)pyrazolo[3,4-b]pyridine], the figure is 81.4%; as for `C[S+]([O-])c1ccc(-n2cc3c(-c4ccc(F)cc4)c(-c4ccncc4)c(-c4ccc(F)cc4)nc3n2)cc1` (centres unmarked) [Example 56, 4,6-Bis(4-fluorophenyl)-2-(4-methylsulfinylphenyl)-5-(4-pyridyl)pyrazolo[3,4-b]pyridine], 58.7%.
As for `COCCOCCn1cc2c(-c3ccc(F)cc3)c(-c3ccncc3)c(-c3ccc(F)cc3)nc2n1` [Example 82, 4,6-Bis(4-fluorophenyl)-2-[2-(2-methoxyethoxy)ethyl]-5-(4-pyridyl)pyrazolo[3,4-b]pyridine], the inhibition at 0.1 µM is 59.9%.
Same read-out and setting: as for `Cc1ccc(-c2c(-c3ccncc3)c(-c3ccc(F)cc3)nc3nn(CCCO)cc23)o1` [Example 272, 3-[6-(4-Fluorophenyl)-4-(5-methylfuran-2-yl)-5-(4-pyridyl)-pyrazolo[3,4-b]pyridin-2-yl]propan-1-ol], the figure is 65.6%; as for `OCCCNc1nccc(-c2cc3cn[nH]c3nc2-c2cccc(C(F)(F)F)c2)n1` [Example 287, 3-[4-[6-(3-Trifluoromethylphenyl)-1H-pyrazolo[3,4-b]pyridin-5-yl]pyrimidin-2-ylamino]propan-1-ol], 71.2%.
Same read-out and setting: as for `OCCn1cc2c(-c3ccccc3)c(-c3ccncc3)c(-c3ccccc3)nc2n1` [Example 196, 2-[4,6-Diphenyl-5-(4-pyridyl)pyrazolo-[3,4-b]pyridin-2-yl]ethanol], the figure is 70.2%.
Still for that read-out and setting: the same measure for `CCNc1nccc(-c2cc3cn[nH]c3nc2-c2cccc(C(F)(F)F)c2)n1` [Example 289, N-Ethyl-[4-[6-(3-trifluoromethyl-phenyl)-1H-pyrazolo[3,4-b]pyridin-5-yl]pyrimidin-2-yl]amine]: 51.3%; for `Fc1ccc(-c2nc3[nH]nc(Cl)c3c(-c3ccc(F)cc3)c2-c2ccncc2)cc1` [Example 63, 3-Chloro-4,6-bis(4-fluorophenyl)-5-(4-pyridyl)-1H-pyrazolo[3,4-b]pyridine]: 53.2%.
Consider `CC(=O)Nc1n[nH]c2nc(-c3ccc(F)cc3)c(-c3ccnc(NCC4CC4)n3)cc12` [Example 268, N-[5-[2-[(Cyclopropylmethyl)amino]pyrimidin-4-yl]-6-(4-fluorophenyl)-1H-pyrazolo[3,4-b]pyridin-3-yl]acetamide], for which at 0.1 µM the inhibition was 69.1%.
Same read-out and setting: as for `Fc1ccc(-c2nc3nn(C4CCNCC4)cc3cc2-c2ccncc2)cc1` [Example 121, 6-(4-Fluorophenyl)-2-(4-piperidyl)-5-(4-pyridyl)pyrazolo[3,4-b]pyridine], the figure is 52.1%; as for `Cn1cc2c(-c3ccc(F)cc3)c(-c3ccnc(Nc4ccc(S(N)(=O)=O)cc4)c3)c(-c3ccc(F)cc3)nc2n1` [Example 214, 4-[4-[4,6-Bis(4-fluorophenyl)-2-methylpyrazolo[3,4-b]pyridin-5-yl]pyridin-2-ylamino]benzenesulfonamide], 71.1%; as for `Cn1cc2cc(-c3ccnc(NCC4CC4)n3)c(-c3ccc(F)cc3)nc2n1` [Example 210, N-Cyclopropylmethyl-[4-[6-(4-fluorophenyl)-2-methylpyrazolo[3,4-b]pyridin-5-yl]pyrimidin-2-yl]amine], 57.3%.
The same measure, in the same setting: the same measure for `OCCn1cc2cc(-c3ccnc(NCC4CC4)n3)c(-c3ccc(F)cc3)nc2n1` [Example 211, 2-[5-[2-[(Cyclopropylmethyl)-amino]pyrimidin-4-yl]-6-(4-fluorophenyl)pyrazolo[3,4-b]pyridin-2-yl]ethanol]: 70.6%; for `OCCNCCn1cc2c(-c3ccccc3)c(-c3ccncc3)c(-c3ccccc3)nc2n1` [Example 232, 2-[2-(4,6-Diphenyl-5-(4-pyridyl)pyrazolo[3,4-b]pyridin-2-yl)ethylamino]ethanol]: 67.9%.
On the same count and under the same terms, as for `Oc1ccc(-c2c(-c3ccncc3)c(-c3ccc(F)cc3)nc3[nH]ncc23)cc1` [Example 72, 4-[6-(4-Fluorophenyl)-5-(4-pyridyl)-1H-pyrazolo[3,4-b]pyridin-4-yl]phenol], the figure is 52.7%.
Consider `O=C(NCCn1cc2c(-c3ccc(F)cc3)c(-c3ccncc3)c(-c3ccc(F)cc3)nc2n1)C1CCNCC1` [Example 248, N-[2-[4,6-Bis(4-fluorophenyl)-5-(4-pyridyl)pyrazolo[3,4-b]pyridin-2-yl]ethyl]piperidine-4-carboxamide], for which the inhibition at 0.1 µM was found to be 53.2%.
Still for that read-out and setting: as for `NCc1n[nH]c2nc(-c3ccc(F)cc3)c(-c3ccncc3)c(-c3ccc(F)cc3)c12` [Example 68, 3-Aminomethyl-4,6-bis(4-fluorophenyl)-5-(4-pyridyl)-1H-pyrazolo[3,4-b]pyridine], the figure is 50%; as for `Cn1cc2c(-c3ccc(F)cc3)c(-c3ccncc3)c(-c3ccc(F)cc3)nc2n1` [Example 8, 4,6-Bis(4-fluorophenyl)-2-methyl-5-(4-pyridyl)pyrazolo[3,4-b]pyridine], 66.3%; as for `Fc1ccc(-c2nc3c(cnn3CC3CCNCC3)c(-c3ccc(F)cc3)c2-c2ccncc2)cc1` [Example 39, 4,6-Bis(4-fluorophenyl)-1-(4-piperidylmethyl)-5-(4-pyridyl)pyrazolo[3,4-b]pyridine], 51.1%.
The same measure, in the same setting: the same measure for `Cn1cnc(-c2c(-c3ccncc3)c(-c3ccc(F)cc3)nc3nn(C)cc23)c1` [Example 184, 6-(4-Fluorophenyl)-2-methyl-4-(1-methyl-1H-imidazol-4-yl)-5-(4-pyridyl)pyrazolo[3,4-b]pyridine]: 71.2%.
Same read-out and setting: as for `Cn1cc2c(-c3ccco3)c(-c3ccncc3)c(-c3ccc(F)cc3)nc2n1` [Example 183, 6-(4-Fluorophenyl)-4-(2-furyl)-2-methyl-5-(4-pyridyl)pyrazolo[3,4-b]pyridine], the figure is 66.7%; as for `CC(=O)NCCCn1cc2c(-c3ccc(F)cc3)c(-c3ccncc3)c(-c3ccc(F)cc3)nc2n1` [Example 240, N-[3-[4,6-Bis(4-fluorophenyl)-5-(4-pyridyl)pyrazolo[3,4-b]pyridin-2-yl]propyl]acetamide], 58.4%.
As for `Fc1ccc(-c2nc3nn(Cc4cccnc4)cc3c(-c3ccc(F)cc3)c2-c2ccncc2)cc1` [Example 102, 4,6-Bis(4-fluorophenyl)-5-(4pyridyl)-2-(3-pyridylmethyl)pyrazolo[3,4-b]pyridine], the inhibition at 0.1 µM is 67.9%.

The test is the same for the next values; noted with them: test product at 0.1 μM, LPS 400 ng/mL, 19 h, TNF-α in supernatant by ELISA.
As to `OCCCn1cc2c(-c3ccc(F)cc3)c(-c3ccncc3)c(-c3ccc(F)cc3)nc2n1` [Example 18, 3-[4,6-Bis(4-fluorophenyl)-5-(4-pyridyl)pyrazolo[3,4-b]pirridin-2-yl]propan-1-ol], the “% Inhibition at 0.1 μM” value was 82.6%.
On the same count and under the same terms, the same measure for “6-(4-Fluorophenyl)-4-methyl-5-(2-methylsulfanylpyrimidin-4-yl)-1H-pyrazolo[3,4-b]pyridine [Example 237]”: 53.4%; for `Cc1c2c(-c3ccc(F)cc3)c(-c3ccncc3)c(-c3ccc(F)cc3)nc2nn1C1CCNCC1` [Example 41, 4,6-Bis(4-fluorophenl)-3-methyl-2-(4-piperidyl)-5-(4-pyridyl)pyrazolo[3,4-b]pyridine]: 90.6%.
On the same count and under the same terms, as for `Cn1cc2c(-c3ccc(Br)s3)c(-c3ccncc3)c(-c3ccc(F)cc3)nc2n1` [Example 188, 4-(5-Bromothien-2-yl)-6-(4-fluoro-phenyl)-2-methyl-5-(4-pyridyl)-1H-pyrazolo[3,4-b]pyridine], the figure is 73.2%.

Broadly, the inhibition is the change of the read-out against control, counted positive when it falls. As a reminder, the % Inhibition is the share of the control response that was lost under treatment. Read a low % Inhibition as a response near the control.
